For the experiment, the system named is Plasmodium berghei. As to the kind of experiment: Luciferase/luciferin-expressing antifolate-resistant parasites were used to infect a culture of HepG2 cells that were pre-incubated with compounds. Infected hepatocytes emit light due to the luciferase reaction. Assay results are presented as the percent inhibition of light emission compared to control. […]. It is filed as functional. Particulars: sporozoite; for IC90: read-out: LUCIFERASE INFECTION ASSAY - IC90.

In general, IC50 refers to the point on the concentration scale where inhibition reaches its midpoint. The term IC90 denotes the concentration at which the effect reaches the 90% level. Turning to `COc1ccc2nc(C)cc(NCc3cccc(C(F)(F)F)c3)c2c1`, the IC90 was 3.24 µM. Further, the IC50 (PBLUC_HILL_SLOPE 17.2, PBLUC_R_SQUARED 0.454, read-out: LUCIFERASE INFECTION ASSAY - IC50) was 2.85 µM.
On to `CC(C)S(=O)(=O)c1csc(NC(=O)Nc2ccc(Cl)cc2)c1`, for which the IC90 was determined as 3.33 µM. In addition, the half-inhibitory concentration (IC50) (PBLUC_HILL_SLOPE 17.2, PBLUC_R_SQUARED 0.385, read-out: LUCIFERASE INFECTION ASSAY - IC50) came to 2.93 µM.
For the molecule `COc1ccc(-c2cc3ncc(-c4ccccc4)c(N)n3n2)cc1`, the concentration for an effect of 90% (IC90) worked out at 4.1 µM. For the same molecule, the IC50 (PBLUC_HILL_SLOPE 17.3, PBLUC_R_SQUARED 0.589, read-out: LUCIFERASE INFECTION ASSAY - IC50) worked out at 3.61 µM.
For the molecule `OCCNCc1cc(Br)ccc1OCc1ccc(F)cc1`, the IC90 worked out at 3.12 µM. The IC50 (PBLUC_HILL_SLOPE 16.8, PBLUC_R_SQUARED 0.362, read-out: LUCIFERASE INFECTION ASSAY - IC50) is 2.74 µM.
With `COc1ccc(-c2cnc3cnc(-c4cccc(C(N)=O)c4)cn23)cn1`, the IC90 is 3.91 µM. In addition, the concentration for half-maximal inhibition (IC50) (PBLUC_HILL_SLOPE 17.6, PBLUC_R_SQUARED 0.459, read-out: LUCIFERASE INFECTION ASSAY - IC50) was determined as 3.45 µM.
With `Clc1ccc(-c2cnc3cnc(-c4cccs4)cn23)cc1`, the IC90 amounted to 3.99 µM. In addition, where the note is “PBLUC_HILL_SLOPE 17.9, PBLUC_R_SQUARED 0.612, read-out: LUCIFERASE INFECTION ASSAY - IC50”, the concentration for half-maximal inhibition (IC50) stood at 3.53 µM.
With `N#Cc1ccc(C(=O)C(C#N)c2nc(-c3ccc(F)cc3)cs2)cc1` (configuration not stated), the concentration for an effect of 90% (IC90) was found to be 3.83 µM. Also, where the note is “PBLUC_HILL_SLOPE 17.7, PBLUC_R_SQUARED 0.0264, read-out: LUCIFERASE INFECTION ASSAY - IC50”, the half-inhibitory concentration (IC50) came to 3.38 µM.
In the case of `Cc1ccn2c(=O)cc(CN3C(=O)NC4(CCCc5ccccc54)C3=O)nc2c1` (configuration not stated), the IC90 was over 10 µM. The 50% inhibitory concentration (IC50) (PBLUC_HILL_SLOPE 16.8, PBLUC_R_SQUARED 0.349, read-out: LUCIFERASE INFECTION ASSAY - IC50) was found to be 9.44 µM.
As for `CC(C)S(=O)(=O)c1csc(NC(=O)Nc2cccc(Cl)c2)c1`, the IC90 was over 9.2 µM. Further, where the note is “PBLUC_HILL_SLOPE 17.1, PBLUC_R_SQUARED 0.0949, read-out: LUCIFERASE INFECTION ASSAY - IC50”, the IC50 was determined as 8.62 µM.
Regarding `CCOC(=O)c1sc(NC(=O)c2ccc([N+](=O)[O-])s2)nc1C`, the concentration for an effect of 90% (IC90) was determined as 3.85 µM. The IC50 (PBLUC_HILL_SLOPE 17.3, PBLUC_R_SQUARED 0.599, read-out: LUCIFERASE INFECTION ASSAY - IC50) is 3.39 µM.
`CCOC(=O)c1[nH]c(C)c(C(=O)CN(C)S(=O)(=O)c2c(C)noc2C)c1C`: the 90% effect concentration (IC90) came out at 3.73 µM. The half-maximal inhibitory concentration (IC50) (PBLUC_HILL_SLOPE 16.9, PBLUC_R_SQUARED 0.509, read-out: LUCIFERASE INFECTION ASSAY - IC50) turned out to be 3.28 µM.
On to `c1ccc(C(Nc2ncnc3sccc23)c2ccco2)cc1` (configuration not stated), for which the 90% effect concentration (IC90) is over 10 µM. The half-inhibitory concentration (IC50) (PBLUC_HILL_SLOPE 17.3, PBLUC_R_SQUARED 0.0145, read-out: LUCIFERASE INFECTION ASSAY - IC50) came out at 8.98 µM.
`NNc1cc(C(F)(F)F)nc(C(F)(F)F)c1`: the concentration for an effect of 90% (IC90) came to 13 µM. For the same molecule, under “PBLUC_HILL_SLOPE 17.4, PBLUC_R_SQUARED 0.11, read-out: LUCIFERASE INFECTION ASSAY - IC50”, the half-maximal inhibitory concentration (IC50) stood at 11.5 µM.
For `CCCNC(=O)c1c(NC(=O)c2cccc(C)c2)nc2ccccn12`, the IC90 was over 9.81 µM. For the setting “PBLUC_HILL_SLOPE 17.7, PBLUC_R_SQUARED 0.381, read-out: LUCIFERASE INFECTION ASSAY - IC50”, the IC50 worked out at 9.1 µM.
For `CCCCNCCCCOc1ccc(C)cc1C(C)(C)C`, the IC90 was over 10 µM. Also, the 50% inhibitory concentration (IC50) (PBLUC_HILL_SLOPE 18.2, PBLUC_R_SQUARED 0.163, read-out: LUCIFERASE INFECTION ASSAY - IC50) came out at 8.89 µM.
As to `N#CC(C(=O)c1cc(S(=O)(=O)N2CCc3ccccc3C2)ccc1Cl)c1ccccn1` (configuration not stated), the IC90 was found to be 3.76 µM. In addition, the concentration for half-maximal inhibition (IC50) (PBLUC_HILL_SLOPE 17.6, PBLUC_R_SQUARED 0.387, read-out: LUCIFERASE INFECTION ASSAY - IC50) worked out at 3.32 µM.
On to `Cc1nc2ccccn2c1C(=O)NCc1cccc(OC(F)(F)F)c1`, for which the IC90 is over 9.45 µM. In addition, for the setting “PBLUC_HILL_SLOPE 18.2, PBLUC_R_SQUARED 0.0314, read-out: LUCIFERASE INFECTION ASSAY - IC50”, the half-maximal inhibitory concentration (IC50) is 8.72 µM.
Consider `Cc1cccc2sc(C(=O)NCc3cccc(NS(N)(=O)=O)c3)c(Cl)c12`, for which the IC90 is 1.3 µM. The half-maximal inhibitory concentration (IC50) (PBLUC_HILL_SLOPE 16.9, PBLUC_R_SQUARED 0.264, read-out: LUCIFERASE INFECTION ASSAY - IC50) came to 1.14 µM.
In the case of `CCOc1cc2c(cc1CNC(=O)c1cccc(NC(=O)c3cccs3)c1)OC(C)C2` (configuration not stated), the IC90 was over 10 µM. Also, the IC50 (PBLUC_HILL_SLOPE 17.6, PBLUC_R_SQUARED 0.496, read-out: LUCIFERASE INFECTION ASSAY - IC50) turned out to be 9.52 µM.
In the case of `Cc1noc2nc(C3CC3)cc(C(=O)Nc3cccc(C(F)(F)F)c3)c12`, the IC90 amounted to 1.12 µM. For the setting “PBLUC_HILL_SLOPE 17.7, PBLUC_R_SQUARED 0.604, read-out: LUCIFERASE INFECTION ASSAY - IC50”, the IC50 turned out to be 0.99 µM.
Turning to `CCc1ccc(CN2CCc3c(c(C(=O)N4CCCC(O)C4)nn3Cc3cccc(OC)c3)C2)cc1` (configuration not stated), the 90% effect concentration (IC90) was over 6.75 µM. Further, the IC50 (PBLUC_HILL_SLOPE 17.4, PBLUC_R_SQUARED 0.568, read-out: LUCIFERASE INFECTION ASSAY - IC50) was 6.43 µM.
As for `COc1ccc(NC(=O)c2cccc(C3(CNCc4ccc(F)c(F)c4)CC3)c2)cn1`, the IC90 was over 10 µM. In addition, the IC50 (PBLUC_HILL_SLOPE 17.1, PBLUC_R_SQUARED 0.0793, read-out: LUCIFERASE INFECTION ASSAY - IC50) is 9.92 µM.
Turning to `CC(C)Cc1nc(N2CCNCC2)c(C#N)c2c1CCCC2`, the IC90 is over 11.1 µM. Besides, the half-inhibitory concentration (IC50) (PBLUC_HILL_SLOPE 17, PBLUC_R_SQUARED 0.257, read-out: LUCIFERASE INFECTION ASSAY - IC50) turned out to be 10 µM.
Regarding `Cc1nn(-c2ccccc2)c(C)c1CN(C)S(=O)(=O)c1ccc(C#N)cc1`, the IC90 was determined as 0.36 µM. Where the note is “PBLUC_HILL_SLOPE 18, PBLUC_R_SQUARED 0.548, read-out: LUCIFERASE INFECTION ASSAY - IC50”, the IC50 is 0.318 µM.
As for `O=c1c2ccccc2nc(SCc2cn3cc(Cl)ccc3n2)n1-c1ccccc1F`, the IC90 is over 10 µM. Besides, the half-inhibitory concentration (IC50) (PBLUC_HILL_SLOPE 16.9, PBLUC_R_SQUARED 0.0163, read-out: LUCIFERASE INFECTION ASSAY - IC50) was 8.93 µM.
With `C=CCn1c(COc2cc(C)ccc2C(C)C)nnc1SCC(=O)NCC12CC3CC(CC(C3)C1)C2`, the IC90 was over 10 µM. Further, for the setting “PBLUC_HILL_SLOPE 17.6, PBLUC_R_SQUARED 0.542, read-out: LUCIFERASE INFECTION ASSAY - IC50”, the IC50 was 9.43 µM.
In the case of `COCOc1ccc(-c2cc(-c3ccc(N)nc3)cnc2N)cc1`, the IC90 is 3.91 µM. For the same molecule, the IC50 (PBLUC_HILL_SLOPE 17.1, PBLUC_R_SQUARED 0.834, read-out: LUCIFERASE INFECTION ASSAY - IC50) worked out at 3.44 µM.
As for `Cc1c(/N=c2\scc(-c3cc4ccccc4o3)n2/N=C/c2ccsc2)c(=O)n(-c2ccccc2)n1C`, the 90% effect concentration (IC90) is 4.03 µM. Besides, the IC50 (PBLUC_HILL_SLOPE 16.9, PBLUC_R_SQUARED 0.235, read-out: LUCIFERASE INFECTION ASSAY - IC50) is 3.54 µM.
Consider `COc1cc(-c2cnc3cnc(-c4ccccc4Cl)cn23)ccc1O`, for which the IC90 was over 9.38 µM. Besides, for the setting “PBLUC_HILL_SLOPE 17.8, PBLUC_R_SQUARED 0.0398, read-out: LUCIFERASE INFECTION ASSAY - IC50”, the IC50 is 8.38 µM.
As to `CCOC(=O)c1nn(Cc2cccc(OC)c2)c2c1CN(C(=O)c1cc3ccccc3o1)CC2`, the IC90 was over 7.18 µM. The IC50 (PBLUC_HILL_SLOPE 17.5, PBLUC_R_SQUARED 0.669, read-out: LUCIFERASE INFECTION ASSAY - IC50) is 7.12 µM.
For the molecule `COc1ccc(OCC(N)=NC(=S)Nc2cccc(C(F)(F)F)c2)cc1`, the concentration for an effect of 90% (IC90) was over 8.61 µM. Besides, where the note is “PBLUC_HILL_SLOPE 17.2, PBLUC_R_SQUARED 0.0649, read-out: LUCIFERASE INFECTION ASSAY - IC50”, the half-inhibitory concentration (IC50) is over 8.61 µM.
Consider `COc1ccccc1N(C)S(=O)(=O)c1ccc(C)c(C(=O)Nc2nc3ccccc3s2)c1`, for which the IC90 came to 8.14 µM. Moreover, under “PBLUC_HILL_SLOPE 17.5, PBLUC_R_SQUARED 0.446, read-out: LUCIFERASE INFECTION ASSAY - IC50”, the IC50 amounted to 7.18 µM.
For `CC(=O)Nc1cccc(-n2nnnc2Sc2ccc([N+](=O)[O-])cc2C#N)c1`, the concentration for an effect of 90% (IC90) was found to be 9.5 µM. Besides, under “PBLUC_HILL_SLOPE 17.4, PBLUC_R_SQUARED 0.386, read-out: LUCIFERASE INFECTION ASSAY - IC50”, the 50% inhibitory concentration (IC50) is 8.38 µM.
As for `CS(=O)(=O)c1ccc(-c2cnc(N)c(-c3cccc(O)c3)c2)cc1`, the IC90 was 3.71 µM. The IC50 (PBLUC_HILL_SLOPE 17.6, PBLUC_R_SQUARED 0.332, read-out: LUCIFERASE INFECTION ASSAY - IC50) was 3.27 µM.
For the molecule `Fc1ccc(-c2cc3ncnc(N4CCN(CCN5CCCC5)CC4)c3s2)cc1`, the concentration for an effect of 90% (IC90) is over 10 µM. The IC50 (PBLUC_HILL_SLOPE 17, PBLUC_R_SQUARED 0.345, read-out: LUCIFERASE INFECTION ASSAY - IC50) was determined as 9.86 µM.
`NC(=O)c1ccc(-c2cc(-c3cccc(F)c3)cnc2N)cc1`: the 90% effect concentration (IC90) worked out at 10.5 µM. Further, the IC50 (PBLUC_HILL_SLOPE 18, PBLUC_R_SQUARED 0.175, read-out: LUCIFERASE INFECTION ASSAY - IC50) worked out at 9.29 µM.

For the origin of these results see ChEMBL document CHEMBL4483862, “Open-source discovery of chemical leads for next-generation chemoprotective antimalarials” (2018).
